Data as given in the supplement of paper PMC10307832.

What was measured:
Assay in all cases: relative viability (nuclei count vs DMSO), 5 days (fraction); higher = more cells survive
Sunitinib + Vorinostat = compound: CCN(CC)CCNC(=O)c1c(C)[nH]c(/C=C2\C(=O)Nc3ccc(F)cc32)c1C [Sunitinib] + O=C(CCCCCCC(=O)Nc1ccccc1)NO [Vorinostat] (partner 1 µM)
In short: (§1)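 Medians of duplicate plates are given as relative viability. That measure is the nuclei count in treated wells divided by the count in vehicle wells. Counts were taken on 4× images of lung cancer cell lines in 1536-well plates, 5 days after pin-tool dosing the day after seeding with one drug alone or a fixed anchor-drug dose plus five library-drug doses (not always all listed) in √10 steps.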

Sunitinib + Palbociclib = compound: CCN(CC)CCNC(=O)c1c(C)[nH]c(/C=C2\C(=O)Nc3ccc(F)cc32)c1C [Sunitinib] + CC(=O)c1c(C)c2cnc(Nc3ccc(N4CCNCC4)cn3)nc2n(C2CCCC2)c1=O [Palbociclib] (partner 0.5 µM)
In short: as §1

Sunitinib + Dasatinib = compound: CCN(CC)CCNC(=O)c1c(C)[nH]c(/C=C2\C(=O)Nc3ccc(F)cc32)c1C [Sunitinib] + Cc1nc(Nc2ncc(C(=O)Nc3c(C)cccc3Cl)s2)cc(N2CCN(CCO)CC2)n1 [Dasatinib] (partner 0.075 µM)
In short: as §1

Sunitinib + Pemetrexed = compound: CCN(CC)CCNC(=O)c1c(C)[nH]c(/C=C2\C(=O)Nc3ccc(F)cc32)c1C [Sunitinib] + Nc1nc2[nH]cc(CCc3ccc(C(=O)N[C@@H](CCC(=O)O)C(=O)O)cc3)c2c(=O)[nH]1 [Pemetrexed] (partner 0.2 µM)
In short: as §1

Cell Line	relative viability (Sunitinib + Vorinostat; first compound 0.02 µM)	relative viability (Sunitinib + Vorinostat; first compound 0.06325 µM)	relative viability (Sunitinib + Vorinostat; first compound 0.2 µM)	relative viability (Sunitinib + Vorinostat; first compound 0.6325 µM)	relative viability (Sunitinib + Vorinostat; first compound 2 µM)	relative viability (Sunitinib + Palbociclib; first compound 0.02 µM)	relative viability (Sunitinib + Palbociclib; first compound 0.06325 µM)	relative viability (Sunitinib + Palbociclib; first compound 0.2 µM)	relative viability (Sunitinib + Palbociclib; first compound 0.6325 µM)	relative viability (Sunitinib + Palbociclib; first compound 2 µM)	relative viability (Sunitinib + Dasatinib; first compound 0.02 µM)	relative viability (Sunitinib + Dasatinib; first compound 0.06325 µM)	relative viability (Sunitinib + Dasatinib; first compound 0.2 µM)	relative viability (Sunitinib + Dasatinib; first compound 0.6325 µM)	relative viability (Sunitinib + Dasatinib; first compound 2 µM)	relative viability (Sunitinib + Pemetrexed; first compound 0.02 µM)	relative viability (Sunitinib + Pemetrexed; first compound 0.06325 µM)	relative viability (Sunitinib + Pemetrexed; first compound 0.2 µM)	relative viability (Sunitinib + Pemetrexed; first compound 0.6325 µM)	relative viability (Sunitinib + Pemetrexed; first compound 2 µM)
201T	0.932	1.05	1.02	0.954	0.965	0.347	0.363	0.336	0.352	0.378	0.542	0.56	0.57	0.571	0.528	0.32	0.325	0.356	0.301	0.355
A-427	0.871	0.915	0.912	0.887	0.898	0.508	0.544	0.568	0.545	0.546	0.66	0.641	0.787	0.723	0.692	0.993	1	0.95	0.997	1.01
ABC-1	1.22	1.38	1.05	1.09		0.623	0.57	0.609	0.763	0.724	0.561	0.609	0.495	0.513	0.49					
BEN	0.535	0.637	0.571	0.574	0.533	0.487	0.467	0.452	0.445	0.496	0.31	0.301	0.277	0.38	0.309	0.812	0.862		0.742	0.74
CAL-12T	0.541	0.864	1.04	0.902	0.682	0.416	0.427	0.46	0.493	0.473	0.36	0.446	0.442	0.468	0.332	1.06	1.17	1.17		1.34
COR-L23	0.457	0.515	0.484	0.464	0.503	0.305	0.402	0.324	0.295	0.363	0.489	0.522	0.622	0.533	0.542	0.207	0.196	0.196	0.199	0.216
COR-L 105	0.856	0.646	0.817	0.797	0.744	0.431	0.399	0.436	0.405	0.458	0.316	0.361	0.286	0.379	0.543	1.08	1.01	1.1	1.14	1.22
ChaGo-K-1	0.736	0.831	0.887	0.773	0.746	0.919	0.918	0.945	0.933	0.801	0.529	0.753	0.575	0.571	0.598	0.263	0.268	0.258	0.255	0.258
EKVX	0.802		0.882	0.806	0.728	0.423	0.453	0.508	0.403	0.463	0.524	0.638	0.605	0.669	0.654	0.373	0.383	0.425	0.416	0.406
EMC-BAC-2	0.458	0.464	0.506	0.506	0.505	0.505	0.534	0.526	0.556	0.579	0.318	0.336	0.383	0.344	0.36	0.427	0.426	0.472	0.481	0.464
EPLC-272H	0.512	0.479	0.424	0.397	0.555	0.324	0.303	0.316	0.256	0.298	0.385	0.418	0.374	0.409	0.333	0.39	0.298	0.314	0.42	0.363
H3255	0.672	0.573	0.835	0.827	0.822	0.313	0.299	0.302	0.311	0.331	0.455	0.379	0.418	0.336	0.381	0.557	0.558	0.567	0.552	0.612
HARA	0.525	0.518	0.687	0.441	0.553	0.268	0.257	0.201	0.246	0.275	0.2	0.254	0.278	0.286	0.302	0.26	0.274	0.241	0.222	0.263
HCC-15	0.905	0.93	0.984	0.789	0.85	0.707	0.737	0.792	0.696	0.715	0.549	0.709	0.726	0.66	0.598	0.236	0.228	0.222	0.204	0.248
HCC-44	1.15	1.09	1.15	1.09	1.14			1.01	0.925	1.01						0.615	0.607	0.676	0.68	0.692
HCC-78	0.427	0.418	0.531	0.481	0.465	0.486	0.504	0.498	0.472	0.526	0.39	0.313	0.329	0.315	0.358	0.914	0.927	0.949	0.93	
HCC-366	0.326	0.388	0.487	0.442	0.468	0.342	0.393	0.652	0.413	0.409	0.526	0.645	0.622	0.668	0.574	0.154	0.168	0.168	0.194	0.497
HCC-827	0.843	0.861	0.668	0.875	0.714	0.487	0.506	0.542	0.478	0.534	0.259	0.284	0.336	0.279	0.342	0.265	0.29	0.28	0.584	0.289

Cell Line	relative viability (Sunitinib + Vorinostat; first compound 0.02 µM)	relative viability (Sunitinib + Vorinostat; first compound 0.06325 µM)	relative viability (Sunitinib + Vorinostat; first compound 0.2 µM)	relative viability (Sunitinib + Vorinostat; first compound 0.6325 µM)	relative viability (Sunitinib + Vorinostat; first compound 2 µM)	relative viability (Sunitinib + Palbociclib; first compound 0.02 µM)	relative viability (Sunitinib + Palbociclib; first compound 0.06325 µM)	relative viability (Sunitinib + Palbociclib; first compound 0.2 µM)	relative viability (Sunitinib + Palbociclib; first compound 0.6325 µM)	relative viability (Sunitinib + Palbociclib; first compound 2 µM)	relative viability (Sunitinib + Dasatinib; first compound 0.02 µM)	relative viability (Sunitinib + Dasatinib; first compound 0.06325 µM)	relative viability (Sunitinib + Dasatinib; first compound 0.2 µM)	relative viability (Sunitinib + Dasatinib; first compound 0.6325 µM)	relative viability (Sunitinib + Dasatinib; first compound 2 µM)	relative viability (Sunitinib + Pemetrexed; first compound 0.02 µM)	relative viability (Sunitinib + Pemetrexed; first compound 0.06325 µM)	relative viability (Sunitinib + Pemetrexed; first compound 0.2 µM)	relative viability (Sunitinib + Pemetrexed; first compound 0.6325 µM)	relative viability (Sunitinib + Pemetrexed; first compound 2 µM)
HOP-62	0.675	0.876	0.744	0.761	0.838	0.381	0.485	0.496	0.427	0.533	0.616	0.744	0.826	0.777	0.682	0.33	0.366	0.337	0.369	0.417
IA-LM	0.975	0.864	0.987	0.952	1.03															
LC-2-ad	0.673	0.767	0.774	0.799	0.698	0.491	0.481	0.593	0.48	0.42	0.621	0.599	0.872	0.558	0.403	0.266	0.275	0.291	0.303	0.26
LCLC-97TM1	0.638	0.943	0.713	0.887	0.768	0.209	0.268	0.279	0.229	0.231	0.918	0.904	0.914	0.911	0.793	0.167	0.198	0.164	0.163	0.212
LCLC-103H	0.778	0.918	0.868	0.827	0.867	0.499	0.488	0.484	0.495	0.52	0.428	0.527	0.501	0.462	0.589	0.452	0.443	0.487	0.442	0.445
LK-2	0.259	0.391	0.311	0.253	0.413	0.563		0.681	0.586	0.642	0.223	0.27	0.324	0.339	0.297	0.266	0.335	0.31	0.254	0.292
LOU-NH91	0.928	0.96	0.997	1	0.884	0.592	0.536	0.562	0.473	0.555	0.576	0.564	0.615	0.648	0.644	0.388	0.38	0.389	0.382	0.448
LU99A	0.468	0.625	0.514	0.516	0.44	0.338	0.473	0.417	0.433	0.442	0.489	0.5	0.612	0.57	0.49	0.199	0.185	0.198	0.151	0.162
LXF-289	0.688	0.857	0.824	0.779	0.752	0.599	0.621	0.597	0.619	0.603	0.248	0.25	0.237	0.204	0.271	0.882	0.972	0.925	0.945	0.874
NCI-H23	0.625	0.841	0.686	0.665	0.674	0.469	0.599	0.488	0.532	0.49	0.658	0.787	0.959	0.955	0.794	0.689	0.823	0.922	0.86	0.563
NCI-H322M	0.9	0.807	0.931	0.847	0.702	0.454	0.48	0.479	0.461	0.497	0.257	0.264	0.293	0.265	0.253	0.654	0.601	0.652	0.62	0.577
NCI-H358	0.588	0.684	0.79	0.77	0.419	0.138	0.158	0.138	0.132	0.125	0.151	0.187	0.182	0.19	0.174	0.178	0.181	0.177	0.177	0.167
NCI-H596	0.734	0.541	0.594	0.637	0.564						0.599	0.731	0.709	0.709	0.467	0.535	0.465	0.507	0.582	0.486
NCI-H727	1.12	1.22	1.18	1.18	1.25	0.598	0.697	0.671	0.616	0.667	0.343	0.432	0.472	0.404	0.275					
NCI-H1563											0.487	0.505	0.441	0.422	0.489	0.759	0.727	0.782	0.721	0.852
NCI-H1648	0.58	0.465	0.356	0.338	0.442	0.257	0.328	0.239	0.279	0.308						0.897	0.737	0.898	0.704	0.835
NCI-H1792						0.627	0.661	0.763	0.612	0.734	0.678	0.799	1.02	0.754	0.74	0.619	0.942	1.26	1.21	0.775
